Source: ChEMBL document CHEMBL4619814, “Identification and Development of 1,4-Diaryl-1,2,3-triazolo-Based Ureas as Novel FLT3 Inhibitors” (ACS Med Chem Lett, 2020)
pKd: −log10 of the molar value. Active and inactive are the calls of the source. The rule behind the calls is not given here.

Columns and labels:
[1] = AUC in Sprague-Dawley rat at 25 mg/kg, po; type: ADME, organism-based; details: in vivo
[2] = system: MOLM-13; assay: cells; details: Homo sapiens, MOLM-13, 72 h
Description: Cytotoxicity against human MOLM13 cells assessed as reduction in cell viability incubated for 72 hrs by CCK8 assay

[3] = molecular target: Receptor-type tyrosine-protein kinase FLT3 (Homo sapiens) (UniProt P36888); assay: Inhibition of FLT3 in human NB4 cells assessed as reduction in FLT3 phosphorylation at 0.8 to 500 nM incubated for 6 hrs by Western blot analysis; type: cell-based; details: NB-4
[4] = system: Receptor-type tyrosine-protein kinase FLT3 (Homo sapiens), P36888 [UNDEFINED MUTATION]; details: MV4-11
Description: Inhibition of FLT3 ITD mutant expressed in human MV4-11 cells assessed as reduction in cell growth incubated for 72 hrs by CCK8 assay

[5] = Half life in Sprague-Dawley rat at 5 mg/kg, iv; type: ADME, organism-based; details: in vivo
[6] = system: MV4-11; assay: Induction of cell cycle arrest in human MV4-11 cells assessed as G2/M phase at 4 nM incubated for 48 hrs by propidium iodide staining based flow cytometry analysis (reference value: 24.88 %); type: functional
[7] = system: MV4-11; assay: Induction of cell cycle arrest in human MV4-11 cells assessed as G0/G1 phase at 4 nM incubated for 48 hrs by propidium iodide staining based flow cytometry analysis (reference value: 54.82 %); type: functional
[8] = system: MV4-11; assay: Induction of cell cycle arrest in human MV4-11 cells assessed as G0/G1 phase at 20 nM incubated for 48 hrs by propidium iodide staining based flow cytometry analysis (reference value: 54.82 %); type: functional
[9] = system: Receptor-type tyrosine-protein kinase FLT3 (Homo sapiens), P36888 [UNDEFINED MUTATION]; assay: Inhibition of FLT3 ITD mutant expressed in human MV4-11 cells assessed as reduction in FLT3 phosphorylation at 0.8 to 500 nM incubated for 6 hrs by Western blot analysis; type: cell-based
[10] = Cmax in Sprague-Dawley rat at 5 mg/kg, iv; type: ADME, organism-based; parameters: dose 5 mg/kg, route intravenous; details: in vivo
[11] = system: MV4-11; assay: Induction of cell cycle arrest in human MV4-11 cells assessed as S phase at 4 nM incubated for 48 hrs by propidium iodide staining based flow cytometry analysis (reference value: 20.14 %); type: functional
[12] = system: HL-60; assay: cells; details: Homo sapiens, HL-60, 72 h
Description: Cytotoxicity against human HL60 cells assessed as reduction in cell viability incubated for 72 hrs by CCK8 assay

[13] = Toxicity in CB17-SCID mouse xenografted with human MV4-11 cells assessed as side effects at 10 to 40 mg/kg, po administered for 10 days and observed on day 10; type: organism-based; details: in vivo, 240 h
[14] = molecular target: T1, Receptor-type tyrosine-protein kinase FLT3 (Homo sapiens, UniProt P36888)
T1 sequence (P36888 whole entry): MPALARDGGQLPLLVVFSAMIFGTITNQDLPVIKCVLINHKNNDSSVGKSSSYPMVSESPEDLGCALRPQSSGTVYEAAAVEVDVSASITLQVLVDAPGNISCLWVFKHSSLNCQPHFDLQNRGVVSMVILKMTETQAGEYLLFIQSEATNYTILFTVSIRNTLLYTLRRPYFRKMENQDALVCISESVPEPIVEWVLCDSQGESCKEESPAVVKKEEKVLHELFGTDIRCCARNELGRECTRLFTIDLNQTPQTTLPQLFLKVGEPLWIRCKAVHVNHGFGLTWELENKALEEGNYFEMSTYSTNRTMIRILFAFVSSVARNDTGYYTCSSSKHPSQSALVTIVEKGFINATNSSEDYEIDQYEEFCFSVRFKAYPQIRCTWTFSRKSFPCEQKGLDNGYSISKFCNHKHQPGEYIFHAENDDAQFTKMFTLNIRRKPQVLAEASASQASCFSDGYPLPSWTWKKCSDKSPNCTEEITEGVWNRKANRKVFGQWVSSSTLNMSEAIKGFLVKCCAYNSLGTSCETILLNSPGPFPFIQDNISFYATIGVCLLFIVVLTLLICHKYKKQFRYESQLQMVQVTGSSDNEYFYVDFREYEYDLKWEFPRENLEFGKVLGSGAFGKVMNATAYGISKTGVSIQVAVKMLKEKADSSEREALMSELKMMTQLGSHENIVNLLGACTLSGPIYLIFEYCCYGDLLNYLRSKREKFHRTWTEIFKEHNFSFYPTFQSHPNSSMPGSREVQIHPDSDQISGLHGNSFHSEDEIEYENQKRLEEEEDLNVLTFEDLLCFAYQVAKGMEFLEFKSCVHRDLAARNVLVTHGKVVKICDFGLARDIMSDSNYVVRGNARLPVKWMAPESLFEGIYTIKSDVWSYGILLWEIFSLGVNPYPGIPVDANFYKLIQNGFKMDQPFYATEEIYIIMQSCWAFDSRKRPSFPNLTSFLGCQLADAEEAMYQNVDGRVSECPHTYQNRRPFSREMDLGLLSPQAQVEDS
Description: Binding affinity to recombinant human FLT3 (592 to 969 residues) expressed in bacterial expression system by Kinomescan method

[15] = system: MV4-11; assay: Antitumor activity at human MV4-11 cells xenografted in CB17-SCID mouse assessed as tumor growth inhibition at 40 mg/kg, po administered for 10 days and measured on day 10 relative to control; type: functional; details: MV4-11, po, 240 h, read-out: TGI
[16] = system: Receptor-type tyrosine-protein kinase FLT3 (Homo sapiens), P36888 [UNDEFINED MUTATION]; assay: Inhibition of FLT3 ITD mutant expressed in human MV4-11 cells assessed as reduction in STAT5 level at > 20 nM incubated for 6 hrs by Western blot analysis relative to control; type: cell-based
[17] = system: U-937; assay: cells; details: Homo sapiens, U-937, 72 h
Description: Cytotoxicity against human U937 cells assessed as reduction in cell viability incubated for 72 hrs by CCK8 assay

[18] = system: MV4-11; assay: Induction of apoptosis in human MV4-11 cells assessed as viable cells at 100 nM incubated for 48 hrs by annexin V and 7-AAD staining based flow cytometry analysis (reference value: 90.47 %); type: functional; details: MV4-11, 48 h, read-out: Activity
[19] = Cmax in Sprague-Dawley rat at 25 mg/kg, po; type: ADME, organism-based; parameters: dose 25 mg/kg, route oral; details: in vivo

## CC(C)(C)c1cc(NC(=O)Nc2ccc(-c3cn(-c4ccc(OCCN5CCOCC5)cc4Cl)nn3)cc2)no1
[1]
  AUC: 41300 ng·h/mL
[2]
  GI50: 5.9 nM
[3]
  inhibition: inactive
[4]
  GI50: 3 nM
[5]
  half-life: 5.11 h
[6]
  Activity: 18.42%
[7]
  Activity: 66.16%
[8]
  Activity: 87.8%
[9]
  inhibition: Active
[10]
  Cmax: 6850 ng/mL
[11]
  Activity: 15.39%
[12]
  GI50: > 3000 nM
[13]
  Activity: Non-Toxic
[14]
  pKd: 8.46
[15]
  inhibition in vivo at 40 mg/kg: 80.1%
[16]
  inhibition: 100%
[17]
  GI50: > 3000 nM
[18]
  viability at 0.1 µM: 71.6%
[19]
  Cmax: 3220 ng/mL
